# Measurements as given in ChEMBL document CHEMBL1649467, “Impact of human serum albumin on oritavancin in vitro activity against enterococci” (Antimicrob Agents Chemother, 2009).
# Experiments:
# Enterococcus faecium [1] = assay: Selectivity ratio of MIC for Enterococcus faecium ATCC 51559 in presence of 4% HSA to MIC for Enterococcus faecium ATCC 51559; format: functional
# Enterococcus faecium [2] = assay: Bactericidal activity against vancomycin-resistant Enterococcus faecium ATCC 51559 expressing vanA gene assessed as change in bacterial count at 4 ug/ml by time-kill assay; format: functional
# Enterococcus faecalis [3] = assay: Selectivity ratio of MIC for Enterococcus faecalis ATCC 51299 in presence of 4% HSA to MIC for Enterococcus faecalis 51299; format: functional
# Enterococcus faecium [4] = assay: Bactericidal activity against vancomycin-resistant Enterococcus faecium ATCC 51559 expressing vanA gene assessed as change in bacterial count at 64 ug/ml by time-kill assay; format: functional
# [5] = Free fraction in healthy human male at 4 mg/kg, iv every 24 hrs by LC/MS/MS analysis; format: ADME, organism-based; set-up: dose 4 mg/kg, route intravenous; settings: in vivo
# Enterococcus faecalis [6] = assay: Selectivity ratio of MIC for Enterococcus faecalis 1058946 in presence of 4% HSA to MIC for Enterococcus faecalis 1058946; format: functional
# [7] = Cmax in healthy human male at 4 mg/kg, iv every 24 hrs by LC/MS/MS analysis; format: ADME, organism-based; set-up: dose 4 mg/kg, route intravenous; settings: in vivo
# Enterococcus faecium [8] = assay: Bactericidal activity against vancomycin-resistant Enterococcus faecium 1059060 expressing vanA gene assessed as change in bacterial count at 64 ug/ml by time-kill assay; format: functional
# Enterococcus faecalis [9] = assay: Antimicrobial activity against vancomycin-susceptible Enterococcus faecalis ATCC 29212 by broth dilution method in presence of 4% HSA; format: functional
# Enterococcus faecalis [10] = assay: Bactericidal activity against vancomycin-resistant Enterococcus faecalis 1058946 expressing vanA gene assessed as change in bacterial count at 4 ug/ml by time-kill assay; format: functional
# Enterococcus faecalis [11] = assay: Bactericidal activity against vancomycin-susceptible Enterococcus faecalis ATCC 29212 assessed as change in bacterial count at 64 ug/ml by time-kill assay; format: functional
# Enterococcus faecalis [12] = assay: Antimicrobial activity against vancomycin-resistant Enterococcus faecalis 1058946 by broth dilution method in presence of 4% HSA; format: functional
# Enterococcus faecium [13] = assay: Bactericidal activity against vancomycin-resistant Enterococcus faecium 1119175 expressing vanB gene assessed as change in bacterial count at 4 ug/ml by time-kill assay; format: functional
# Enterococcus faecalis [14] = assay: Bactericidal activity against vancomycin-susceptible Enterococcus faecalis ATCC 29212 assessed as change in bacterial count at 4 ug/ml by time-kill assay; format: functional
# Enterococcus faecium [15] = assay: Antimicrobial activity against vancomycin-resistant Enterococcus faecium 1119175 by broth dilution method; format: functional
# Enterococcus faecium [16] = assay: Selectivity ratio of MIC for Enterococcus faecium 1119175 in presence of 4% HSA to MIC for Enterococcus faecium 1119175; format: functional
# Enterococcus faecalis [17] = assay: Antimicrobial activity against vancomycin-susceptible Enterococcus faecalis ATCC 29212 by broth dilution method; format: functional
# Enterococcus faecalis [18] = assay: Bactericidal activity against vancomycin-resistant Enterococcus faecalis 1058946 expressing vanA gene assessed as change in bacterial count at 64 ug/ml by time-kill assay; format: functional
# Enterococcus faecium [19] = assay: Antimicrobial activity against vancomycin-resistant Enterococcus faecium ATCC 51559 by broth dilution method; format: functional
# Enterococcus faecium [20] = assay: Bactericidal activity against vancomycin-resistant Enterococcus faecium 1119175 expressing vanB gene assessed as change in bacterial count at 64 ug/ml by time-kill assay; format: functional
# Enterococcus faecalis [21] = assay: Antimicrobial activity against vancomycin-resistant Enterococcus faecalis ATCC 51299 by broth dilution method; format: functional
# Enterococcus faecium [22] = assay: Antimicrobial activity against vancomycin-resistant Enterococcus faecium ATCC 51559 by broth dilution method in presence of 4% HAS; format: functional
# Enterococcus faecalis [23] = assay: Bactericidal activity against vancomycin-resistant Enterococcus faecalis ATCC 51299 expressing vanB gene assessed as change in bacterial count at 64 ug/ml by time-kill assay; format: functional
# Enterococcus faecium [24] = assay: Bactericidal activity against vancomycin-resistant Enterococcus faecium 1059060 expressing vanA gene assessed as change in bacterial count at 4 ug/ml by time-kill assay; format: functional
# Enterococcus faecalis [25] = assay: Antimicrobial activity against vancomycin-resistant Enterococcus faecalis 1058946 by broth dilution method; format: functional
# Enterococcus faecium [26] = assay: Antimicrobial activity against vancomycin-resistant Enterococcus faecium 1059060 by broth dilution method in presence of 4% HSA; format: functional
# Enterococcus faecium [27] = assay: Selectivity ratio of MIC for Enterococcus faecium 1059060 in presence of 4% HSA to MIC for Enterococcus faecium 1059060; format: functional
# Enterococcus faecium [28] = assay: Antimicrobial activity against vancomycin-resistant Enterococcus faecium 1119175 by broth dilution method in presence of 4% HSA; format: functional
# Enterococcus faecalis [29] = assay: Antimicrobial activity against vancomycin-resistant Enterococcus faecalis ATCC 51299 by broth dilution method in presence of 4% HSA; format: functional
# Enterococcus faecalis [30] = assay: Selectivity ratio of MIC for Enterococcus faecalis ATCC 29212 in presence of 4% HSA to MIC for Enterococcus faecalis ATCC 29212; format: functional
# Enterococcus faecalis [31] = assay: Bactericidal activity against vancomycin-resistant Enterococcus faecalis ATCC 51299 expressing vanB gene assessed as change in bacterial count at 4 ug/ml by time-kill assay; format: functional
# Enterococcus faecium [32] = assay: Antimicrobial activity against vancomycin-resistant Enterococcus faecium 1059060 by broth dilution method; format: functional
# Enterococcus faecium [33] = assay: Bactericidal activity against vancomycin-resistant Enterococcus faecium 1059060 expressing vanA gene assessed as change in bacterial count at 16 ug/ml by time-kill assay; format: functional
# [34] = Cmax in healthy human male at 600 mg, po every 12 hrs by LC/MS/MS analysis; format: ADME, organism-based; set-up: dose 600 mg, route oral; settings: in vivo
# Enterococcus faecium [35] = assay: Bactericidal activity against vancomycin-resistant Enterococcus faecium 1119175 expressing vanB gene assessed as change in bacterial count at 16 ug/ml by time-kill assay; format: functional
# Enterococcus faecium [36] = assay: Bactericidal activity against vancomycin-resistant Enterococcus faecium ATCC 51559 expressing vanA gene assessed as change in bacterial count at 16 ug/ml by time-kill assay; format: functional
# Enterococcus faecalis [37] = assay: Bactericidal activity against vancomycin-susceptible Enterococcus faecalis ATCC 29212 assessed as change in bacterial count at 16 ug/ml by time-kill assay; format: functional
# Enterococcus faecalis [38] = assay: Bactericidal activity against vancomycin-resistant Enterococcus faecalis 1058946 expressing vanA gene assessed as change in bacterial count at 16 ug/ml by time-kill assay; format: functional
# Enterococcus faecalis [39] = assay: Bactericidal activity against vancomycin-resistant Enterococcus faecalis ATCC 51299 expressing vanB gene assessed as change in bacterial count at 16 ug/ml by time-kill assay; format: functional
compound,measurement,setting,value
CCCCCCCCCC(=O)N[C@@H](Cc1c[nH]c2ccccc12)C(=O)N[C@H](CC(N)=O)C(=O)N[C@@H](CC(=O)O)C(=O)N[C@@H]1C(=O)NCC(=O)N[C@@H](CCCN)C(=O)N[C@@H](CC(=O)O)C(=O)N[C@H](C)C(=O)N[C@@H](CC(=O)O)C(=O)NCC(=O)N[C@H](CO)C(=O)N[C@@H]([C@H](C)CC(=O)O)C(=O)N[C@@H](CC(=O)c2ccccc2N)C(=O)O[C@@H]1C,Ratio,Enterococcus faecium [1],16
same,log10CFU/ml,Enterococcus faecium [2],2.4
same,Ratio,Enterococcus faecalis [3],16
same,log10CFU/ml,Enterococcus faecium [4],1.4
same,fraction unbound at 24 h,[5],0.08
same,Ratio,Enterococcus faecalis [6],8
same,Cmax,[7],64000 ng/mL
same,log10CFU/ml,Enterococcus faecium [8],-0.78
same,MIC,Enterococcus faecalis [9],32 µg/mL
same,log10CFU/ml,Enterococcus faecalis [10],2.5
same,log10CFU/ml,Enterococcus faecalis [11],0.26
same,MIC,Enterococcus faecalis [12],16 µg/mL
same,log10CFU/ml,Enterococcus faecium [13],2.3
same,log10CFU/ml,Enterococcus faecalis [14],1.9
same,MIC,Enterococcus faecium [15],4 µg/mL
same,Ratio,Enterococcus faecium [16],16
same,MIC,Enterococcus faecalis [17],2 µg/mL
same,log10CFU/ml,Enterococcus faecalis [18],-0.4
same,MIC,Enterococcus faecium [19],2 µg/mL
same,log10CFU/ml,Enterococcus faecium [20],1.5
same,MIC,Enterococcus faecalis [21],2 µg/mL
same,MIC,Enterococcus faecium [22],32 µg/mL
same,log10CFU/ml,Enterococcus faecalis [23],1.4
same,log10CFU/ml,Enterococcus faecium [24],-0.54
same,MIC,Enterococcus faecalis [25],2 µg/mL
same,MIC,Enterococcus faecium [26],8 µg/mL
same,Ratio,Enterococcus faecium [27],8
same,MIC,Enterococcus faecium [28],64 µg/mL
same,MIC,Enterococcus faecalis [29],32 µg/mL
same,Ratio,Enterococcus faecalis [30],16
same,log10CFU/ml,Enterococcus faecalis [31],2.3
same,MIC,Enterococcus faecium [32],1 µg/mL
CC(=O)NC[C@H]1CN(c2ccc(N3CCOCC3)c(F)c2)C(=O)O1 [LINEZOLID],log10CFU/ml,Enterococcus faecium [33],-0.42
same,log10CFU/ml,Enterococcus faecium [2],-0.63
same,log10CFU/ml,Enterococcus faecalis [10],0.78
same,log10CFU/ml,Enterococcus faecium [13],0.2
same,log10CFU/ml,Enterococcus faecalis [14],0.13
same,MIC,Enterococcus faecium [15],2 µg/mL
same,Cmax,[34],16000 ng/mL
same,log10CFU/ml,Enterococcus faecium [35],-0.72
same,MIC,Enterococcus faecium [19],1 µg/mL
same,log10CFU/ml,Enterococcus faecium [36],-2
same,log10CFU/ml,Enterococcus faecalis [37],0.11
same,MIC,Enterococcus faecium [22],2 µg/mL
same,log10CFU/ml,Enterococcus faecalis [38],0.08
same,log10CFU/ml,Enterococcus faecium [24],-0.35
same,log10CFU/ml,Enterococcus faecalis [39],-0.35
same,MIC,Enterococcus faecium [26],1 µg/mL
same,MIC,Enterococcus faecium [28],2 µg/mL
same,log10CFU/ml,Enterococcus faecalis [31],-0.5
same,MIC,Enterococcus faecium [32],1 µg/mL
